For 14 compounds, Ki results are on record in ChEMBL document CHEMBL1126540, “Synthesis and evaluation of 3-carboxymethyl steroids as inhibitors of human prostatic steroid 5-reductase” (Bioorg Med Chem Lett, 1993).

The assay can be described thus: Inhibition of Human prostatic Steroid 5-alpha-reductase. The note with it: read-out: Ki app.
Turning to `CC(C)N(C(=O)[C@H]1CC[C@H]2[C@@H]3CCc4cc(CC(=O)O)ccc4[C@H]3CC[C@]12C)C(C)C`, the Ki is 0.02 µM.

On to `CC(C)N(C(=O)[C@H]1CC[C@H]2[C@@H]3CC[C@H]4C/C(=C/C(=O)O)CC[C@]4(C)[C@H]3CC[C@]12C)C(C)C`, for which the Ki is > 5 µM.

For the compound `CC(C)N(C(=O)[C@H]1CC[C@H]2[C@@H]3CCc4cc(CS(=O)(=O)O)ccc4[C@H]3CC[C@]12C)C(C)C`, the Ki was > 5 µM.

`CC(C)N(C(=O)[C@H]1CC[C@H]2[C@@H]3CCc4cc(C(=O)C(=O)O)ccc4[C@H]3CC[C@]12C)C(C)C`: the Ki came to 0.15 µM.

With `CC(C)N(C(=O)[C@H]1CCC2C3CC[C@H]4C=C(CC(=O)O)CC[C@]4(C)C3CC[C@@]21C)C(C)C` (some centres undefined), the Ki was found to be 0.085 µM.

Turning to `CC(C)N(C(=O)[C@H]1CCC2C3CC=C4C=C(CC(=O)O)CC[C@]4(C)C3CC[C@@]21C)C(C)C` (some centres undefined), the Ki came out at 0.45 µM.

With `CC(C)N(C(=O)[C@H]1CCC2C3CC[C@H]4CC(CC(=O)O)=CC[C@]4(C)C3CC[C@@]21C)C(C)C` (some centres undefined), the Ki is 0.04 µM.

For the compound `CC(C)N(C(=O)[C@H]1CC[C@H]2[C@@H]3CCc4cc(C(F)(F)C(=O)O)ccc4[C@H]3CC[C@]12C)C(C)C`, the Ki was 0.04 µM.

Take `CC(C)N(C(=O)[C@H]1CCC2C3CC[C@H]4C=C(C(=O)O)CC[C@]4(C)C3CC[C@@]21C)C(C)C` (some centres undefined): the Ki turned out to be 0.03 µM.

As for `CC(C)N(C(=O)[C@H]1CCC2C3CCC4=C/C(=C\C(=O)O)CC[C@]4(C)C3CC[C@@]21C)C(C)C` (some centres undefined), the Ki is > 5 µM.

Consider `CC(C)N(C(=O)[C@H]1CCC2C3CCC4=C/C(=C/C(=O)O)CC[C@]4(C)C3CC[C@@]21C)C(C)C` (some centres undefined), for which the Ki is > 5 µM.

Take `CC(C)N(C(=O)[C@H]1CCC2C3CC=C4C=C(C(=O)O)CC[C@]4(C)C3CC[C@@]21C)C(C)C` (some centres undefined): the Ki was found to be 0.007 µM.

Take `CC(C)N(C(=O)[C@H]1CC[C@H]2[C@@H]3CCc4cc(CP(=O)(O)O)ccc4[C@H]3CC[C@]12C)C(C)C`: the Ki was determined as 0.74 µM.

Take `CC(C)N(C(=O)[C@H]1CC[C@H]2[C@@H]3CCc4cc(CCC(=O)O)ccc4[C@H]3CC[C@]12C)C(C)C`: the Ki worked out at 0.29 µM.
